Experimental data published in article PMC11091967, “Silicon-Rhodamine Functionalized Evocalcet Probes Potently and Selectively Label Calcium Sensing Receptors In Vitro, In Vivo, and Ex Vivo” (ACS Pharmacology & Translational Science, 2024).
Like-named read-outs stand apart in the source and are kept apart here. Values belong to the compound of their own block, whether it stands above or below them.

Assays:
[1] = target: T1, human CaSR (Homo sapiens, UniProt P41180); assay: FLIPR-based functional CaSR calcium assay in HCAR cells; assay type: cell-based; conditions: HCAR cells
T1 construct: host or cells: CCL39 hamster lung fibroblasts stably transfected (HCAR), Geneticin selection
T1 sequence (P41180 20-1078): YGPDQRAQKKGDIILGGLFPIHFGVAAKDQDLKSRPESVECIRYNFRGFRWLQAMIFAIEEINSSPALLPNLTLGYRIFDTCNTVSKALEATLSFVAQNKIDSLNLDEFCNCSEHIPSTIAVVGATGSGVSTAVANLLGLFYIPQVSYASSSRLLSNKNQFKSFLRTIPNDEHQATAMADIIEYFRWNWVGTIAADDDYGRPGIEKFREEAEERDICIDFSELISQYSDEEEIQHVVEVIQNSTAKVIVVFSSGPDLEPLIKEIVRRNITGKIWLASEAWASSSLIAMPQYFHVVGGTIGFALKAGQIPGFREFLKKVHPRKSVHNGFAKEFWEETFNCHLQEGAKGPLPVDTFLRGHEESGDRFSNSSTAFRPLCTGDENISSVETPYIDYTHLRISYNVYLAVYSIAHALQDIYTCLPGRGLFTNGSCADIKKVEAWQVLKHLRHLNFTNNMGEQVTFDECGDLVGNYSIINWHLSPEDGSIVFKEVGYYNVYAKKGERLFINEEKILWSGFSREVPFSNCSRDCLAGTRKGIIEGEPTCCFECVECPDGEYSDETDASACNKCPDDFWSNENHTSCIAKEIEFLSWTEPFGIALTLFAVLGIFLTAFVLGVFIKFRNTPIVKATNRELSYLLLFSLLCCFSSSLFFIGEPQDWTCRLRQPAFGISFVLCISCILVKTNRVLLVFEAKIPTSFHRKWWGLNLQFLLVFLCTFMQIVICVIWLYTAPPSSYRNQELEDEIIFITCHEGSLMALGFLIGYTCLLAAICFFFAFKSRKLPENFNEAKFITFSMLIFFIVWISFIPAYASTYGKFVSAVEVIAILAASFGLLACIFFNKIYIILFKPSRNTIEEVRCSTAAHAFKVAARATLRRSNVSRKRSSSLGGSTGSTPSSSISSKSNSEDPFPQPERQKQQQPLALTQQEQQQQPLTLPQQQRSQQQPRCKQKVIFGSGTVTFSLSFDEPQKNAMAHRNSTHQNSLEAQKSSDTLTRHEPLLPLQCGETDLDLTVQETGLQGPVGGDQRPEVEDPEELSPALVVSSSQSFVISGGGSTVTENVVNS
Description: Hamster lung fibroblasts (CCL39, CaSR−) expressing the recombinant human CaSR (HCAR, CaSR+) and nontransected controls were kindly provided by Novartis AG and were kept in standard culturing conditions (37 °C, 5% CO2) in 1/2 DMEM (Roth, 9005.1)—1/2 F-12 (Sigma, N4888–500 mL) media containing 10% FBS. Media for the HCAR cells contained 500 μg/mL Geneticin as a selection antibiotic (Thermo Fisher, 10131035). Upon reaching 90–95% confluence, cells were detached and seeded into 96-well plates (PerkinElmer, 6005182) at a concentration of 35,000 cells per well and were incubated for 24 h before the experiment. For the functional CaSR calcium assay, cells were first washed twice with HBSS medium (Sigma, H6648), and were incubated in HBSS containing 5 μM Fluo-8 AM and 0.1 mM CaCl2 for 30 min at 37 °C. Calcium transients were measured upon addition of 0.5 mM CaCl2 with the FLIPR Tetra high-throughput cellular screening systems using the 470–495 nm LED excitation and 515–575 nm bandpass emission filters. Probe solutions contained 0.5% DMSO and were added to the cells 10 min prior to the measurement. dF/F0 values were calculated as a change in the peak fluorescence value of the transient for the first 200 data points normalized to the background fluorescence of the well. […] Both cells were washed with HBSS medium twice and then incubated for 10 min at 37 °C in HBSS medium containing 0.1% BSA in the presence or absence of 10 μM evocalcet. Upon the removal of media, cells were incubated in various concentrations of EvoSiR4 and EvoSiR6 in HBSS containing 0.1% BSA for 30 min at 37 °C and were subsequently washed 3 times with 0.1% BSA and resuspended in DMSO before the fluorometric measurement. The fluorescence was measured using a Tecan GENios pro microplate reader with the following parameters: λex = 612 nm, λem = 670 nm, gain = 50 AU. Data for the EvoSiR probes and the evocalcet competition is reported as CaSR-specific fluorescence, which was calculated by dividing the absolute fluorescence of the HCAR cells with the absolute fluorescence of the CCL39 cells for each concentration.

[2] = Photophysical characterization; assay type: physicochemical; parameters: λex / λem: unit not given here
[3] = target: T2, bovine serum albumin (BSA) (Bos taurus, UniProt P02769); assay: Spectrofluorometric analysis of fluorogenicity upon BSA binding; assay type: physicochemical
T2 construct: purchased Sigma A7906
T2 sequence (P02769 25-607): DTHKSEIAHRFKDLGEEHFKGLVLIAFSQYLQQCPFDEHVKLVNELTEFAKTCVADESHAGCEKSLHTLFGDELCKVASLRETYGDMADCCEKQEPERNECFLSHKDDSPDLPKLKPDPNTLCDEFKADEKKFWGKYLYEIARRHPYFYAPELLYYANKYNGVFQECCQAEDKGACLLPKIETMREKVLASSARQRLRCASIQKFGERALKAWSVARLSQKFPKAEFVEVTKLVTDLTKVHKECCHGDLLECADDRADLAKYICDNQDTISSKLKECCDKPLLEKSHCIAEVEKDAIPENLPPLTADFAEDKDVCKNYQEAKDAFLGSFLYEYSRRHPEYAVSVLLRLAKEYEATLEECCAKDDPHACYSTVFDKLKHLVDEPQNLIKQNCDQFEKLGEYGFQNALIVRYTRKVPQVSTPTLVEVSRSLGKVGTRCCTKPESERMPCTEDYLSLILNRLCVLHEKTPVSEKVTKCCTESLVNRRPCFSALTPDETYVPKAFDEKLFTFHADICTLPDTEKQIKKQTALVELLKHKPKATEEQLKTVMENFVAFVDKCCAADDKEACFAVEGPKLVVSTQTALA
Description: (§1) Spectrofluorometric measurements were carried out by using the Agilent Cary Eclipse instrument. The voltage of the photomultiplier tube (PMT) was set to 600 for EvoSiR4 and EvoSiR6, and for 500 for SiR (4). Fluorescence of the probes was measured at concentrations ranging from 30 to 3000 nM in PBS containing various amounts of bovine serum albumin (BSA) (Sigma, A7906). Quenching experiments for the calculation of BSA binding were performed by adding a 1:1 molar ratio of tannic acid dissolved in ddH2O (Sigma, 403040) to the solution prior to measuring fluorescence.

[4] = target: T1, human CaSR; assay: In vitro labeling of CaSR expressing (HCAR) and control (CCL39) cells, fluorescence microscopy; assay type: cell-based
Description: HCAR (CaSR+) and CCL39 (CaSR−) cells were kindly obtained from Novartis AG (Basel, Switzerland) and validated in house. The cells were seeded into μ-slide 18 well plates (ibidi, 81816) at a density of 5000 cells per well and were incubated for 24 h under standard culturing conditions. As our preliminary data indicated considerable nonspecific labeling of dying cells and cellular debris, a viability staining was introduced to ensure probe specificity.[29] Thus, after washing twice with HBSS, cells were incubated in 10 μM Calcein AM solution containing 0.02% Pluronic F-127 and 0.1% DMSO for 45 min at 37 °C. The solution was then removed and washed twice in HBSS before the addition of the HBSS solution containing the SiR probes. All probe solutions were protected from light exposure and contained 0.5% DMSO and various concentrations of BSA depending on the experiment. Incubation with the fluorescent probes was 20 min long, after which a single washing step was introduced with HBSS before imaging. Images of the cells (Calcein: FITC channel, SiR: Cy5 channel) were acquired with a Nikon Eclipse TI2 inverted wide-field fluorescence microscope using a 60× magnification oil immersion objective (Nikon CFI Plan Fluor, 60×, NA = 0.85). For each well, a minimum of 3 images were acquired. For each image, cells were segmented to generate labels on the FITC channel postacquisition using the deep neural network-based Cellpose package in Python 3.9 (model_type: cyto2, diameter: 200, flow_threshold: 0.4).[30] To normalize pixel intensity values across images, for each image, a background value was calculated by taking the average pixel intensity value of the pixels in which no cellular label was present and were negative for the EvoSiR label (triangle thresholding used). For each cell, the skewness of the value distribution and the mean of the Cy5 pixel intensities were calculated. The procedure for evaluating the long-term labeling (72 h) of EvoSiR probes on CCL39 and HCAR cells was similar, with the following modifications: images were retrieved using 10× magnification air objectives (Nikon CFI Plan Fluor 10×, NA = 0.3), in the neural network model, the diameter parameter was set to 30, and only the mean Cy5 pixel intensities per cell object were retrieved.

[5] = tested on: hair cells of the neuromasts within the lateral line organ; assay: In vivo labeling of neuromasts in zebrafish larvae; parameters: species or system zebrafish (Danio rerio); conditions: 4–6 dpf larvae, neuromasts identified with DiAsp
Description: For the neuromast labeling experiments, wild-type 4–6 days post fertilization (dpf) zebrafish larvae were incubated in 200 μL of E3 medium containing different doses of the SiR probes (500–5000 nM), 2.5 μM 4-(4-diethylaminostyryl)-1-methyl-pyridinium-iodid (DiAsp, Sigma, D3418), which specifically labels hair cells in the lateral line in 0.5% DMSO for 30 min (35). Next, washing and anesthesia were achieved by placing the larvae in a 35 mm imaging dish (MolBiTec, Imaging dish 1.5) which contained 500 μL of E3 medium with 168 mg/L MS-222 (Tricaine Mehanesulfonate, Sigma) for 10 min. After removing the solution, fish were side-embedded in the imaging dish using 500 μL of 0.75% low-melting temperature agarose (Sigma, A4018). Wide-field imaging was done using the Zeiss Axio Observer fluorescence microscope (LD A-Plan 10× objective, NA = 0.25), and confocal imaging was done using a Zeiss LSM 800 confocal fluorescence microscope (LD LCI Plan-Apochromat 25× objective, NA = 0.8).

[6] = Spectrofluorometric fluorescence in PBS and effect of pH; assay type: physicochemical; conditions: PBS
Description: as §1

[7] = Fluorescence quenching of SiR probes by tannic acid, spectrofluorometer; assay type: physicochemical
Description: as §1

EC50 ([1]; dF/F0, read-out: EC50 of intracellular calcium release in response to extracellular calcium): 252 ± 10 µM
Compound: [Ca+2].[Cl-].[Cl-] [extracellular calcium, CaCl2, reference compound]

EC50 ([1]; response to addition of 0.5 mM CaCl2, no BSA, read-out: EC50, positive allosteric modulation of CaSR activity): 0.101 ± 0.006 µM
Compound: C[C@@H](N[C@H]1CCN(c2ccc(CC(=O)NCCCCNC(=O)OC(C)(C)C)cc2)C1)c1cccc2ccccc12 [compound 1]

Compound: Cc1cc(C(=O)NCCCCN)ccc1C1=C2C=CC(=[N+](C)C)C=C2[Si](C)(C)c2cc(N(C)C)ccc21 [SiR (4)]
fluorescence lifetime τ [2]: 1.92 ± 0.733 ns
quantum yield Φ ([2]; 94% ethanol, 750 nM, relative to Rhodamine B): 0.347
λem ([2]; Table 1): 670
λex ([2]; Table 1): 650
extinction coefficient ε ([2]; absorbance at 150–1350 nM, 1 cm cuvette): 7051 M^–1 cm^–1
increase in absolute fluorescence upon addition of 1% BSA ([3]; 1% BSA compared to PBS): no effect
change in absolute fluorescence in response to BSA ([3]; BSA 0.01–0.1%): no significant change
fold increase in skewness of pixel intensity distribution, CaSR+ (HCAR) vs CaSR- (CCL39) cells ([4]; 500 nM probe, 0.1% BSA): no significant difference
normalized fluorescence of the neuromasts to the background fluorescence, mean and standard deviation [5]: 1.28 ± 0.41
absolute fluorescence in PBS relative to EvoSiR4 and EvoSiR6 [6]: 10 times

IC50 of quenching the fluorescence of EvoSiR probes and SiR (4) [7]: low nanomolar ranges
increase in signal-to-noise ratio of EvoSiR4 labeling ([4]; 100 nM tannic acid, CaSR+ cells labeled with 500 nM EvoSiR4): 40%
Compound: tannic acid [reference compound]
